From patent US20170065564A1, “BIS-CYCLIC GUANIDINE COMPOUND COMPOSITIONS, METHODS OF USE AND TREATMENT THEREOF” (University of South Florida, priority 2014, published 2017)

Key:
Pseudomonas aeruginosa = experiment: MIC micro broth dilution assay; type: cell-based; conditions: for MIC: Pseudomonas aeruginosa
Method: For this study we used a representative panel of multi-drug resistant clinical ESKAPE pathogen isolates (Supplemental Table S6).^42 43 3a, 44 45 Gram-positive organisms were grown in tryptic soy broth media (TSB), whilst Gram-negative organisms were grown in lysogeny Broth (LB), as described by us previously. ^43 MIC and MBC determination assays.
Broth cultures of ESKAPE strains were grown overnight before being diluted 1 in 1,000 in fresh media. Sterile 96-well plates were loaded with culture and compounds (in DMF) were added at decreasing concentrations to equal a total volume of 200 μl per well. Care was taken to not add more than 2.0% DMF to any well. Plates were then incubated at 37° C., and MICs determined after 24 hours by visual inspection for a lack of turbidity in wells. All assays were performed in triplicate with identical results obtained. For both the scaffold ranking and positional scanning samples, relative broad-spectrum activity was determined via stacked scores: […]

Acinetobacter baumannii = experiment: MIC micro broth dilution assay; type: cell-based; conditions: for MIC: Acinetobacter baumannii
How it was run: (§1)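 Strains were multidrug-resistant clinical isolates grown in LB (Gram-negative) or TSB (Gram-positive), diluted 1:1,000 before compound addition.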

Enterobacter cloacae = experiment: MIC micro broth dilution assay; type: cell-based; conditions: for MIC: Enterobacter cloacae
How it was run: as §1

Enterococcus faecium = experiment: MIC micro broth dilution assay; type: cell-based; conditions: for MIC: Enterococcus faecium
How it was run: as §1

Staphylococcus aureus = experiment: MIC micro broth dilution assay; type: cell-based; conditions: for MIC: Staphylococcus aureus
How it was run: as §1

Klebsiella pneumoniae = experiment: MIC micro broth dilution assay; type: cell-based; conditions: for MIC: Klebsiella pneumoniae
How it was run: as §1

K. pneumoniae = experiment: Resistance serial passage assay; type: cell-based, Klebsiella pneumoniae; conditions: 8 passages, concentration doubled each day
Method: ESKAPE pathogens were grown overnight in liquid media at 37° C. These cultures were then diluted 1:100 in fresh media, and seeded into a 96-well plate. Lead bis-cyclic guanidines or control agents were added to respective wells at half MIC concentrations. Plates were then incubated for 24 hours at 37° C., with bacteria removed from these cultures on the following day, to inoculate fresh media (1:100 dilution) containing compounds at a 2-fold higher concentrations. These were then grown overnight, and the procedure repeated for a total of eight days. […] Each experiment was performed in triplicate, yielding identical results.

ESKAPE pathogens = experiment: MIC micro broth dilution assay, statements and stacked scores over all ESKAPE pathogens; type: cell-based; conditions: letters E,S,K,A,P,E = ESKAPE pathogens, — = none
How it was run: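 Overnight cultures of multidrug-resistant clinical isolates, diluted 1 in 1,000 (Gram-positives in TSB, Gram-negatives in LB), were exposed to decreasing compound concentrations in DMF (≤2.0%) at 37° C. MIC was read visually as no turbidity after 24 hours, in triplicate. Broad-spectrum activity was ranked by stacked scores.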

[1] = panel of E. cloacae clinical isolates
[2] = panel of K. pneumoniae clinical isolates

CCCC[C@H]1CN(CCCC[C@H]2CNC(=N)N2CCc2cccc(C(F)(F)F)c2)C(=N)N1CCCCC1CCCCC1 [Compound 2, (S)-4-butyl-3-(4-cyclohexylbutyl)-1-(4-((S)-2-imino-3-(3-(trifluoromethyl)phenethyl)imidazolidin-4-yl)butyl)imidazolidin-2-imine]
3 µM: MIC (Pseudomonas aeruginosa; P. aeruginosa isolate 1414) | MIC (Pseudomonas aeruginosa; P. aeruginosa isolate 1415) | MIC (Pseudomonas aeruginosa; P. aeruginosa isolate 1417) | MIC (Pseudomonas aeruginosa; P. aeruginosa isolate 1419) | MIC (Pseudomonas aeruginosa; P. aeruginosa isolate 1420) | MIC (Pseudomonas aeruginosa; P. aeruginosa isolate 1421) | MIC (Pseudomonas aeruginosa; P. aeruginosa isolate 1422) | MIC (Enterobacter cloacae; E. cloacae isolate 1447) | MIC (Enterobacter cloacae; E. cloacae isolate 1448) | MIC (Klebsiella pneumoniae; K. pneumoniae isolate 1409) | MIC (Klebsiella pneumoniae; K. pneumoniae isolate 1434)
1.52 µM: MIC (Pseudomonas aeruginosa; purified compound, Table 1) | MIC (Acinetobacter baumannii; purified compound, Table 1) | MIC (Enterobacter cloacae; purified compound, Table 1) | MIC (Enterococcus faecium; purified compound, Table 1) | MIC (Staphylococcus aureus; purified compound, Table 1) | MIC (Klebsiella pneumoniae; purified compound, Table 1)
2 µM: MIC (Pseudomonas aeruginosa; P. aeruginosa isolate 1416) | MIC (Pseudomonas aeruginosa; P. aeruginosa isolate 1423) | MIC (Acinetobacter baumannii; A. baumannii isolate 1403) | MIC (Acinetobacter baumannii; A. baumannii isolate 1643) | MIC (Acinetobacter baumannii; A. baumannii isolate 1644) | MIC (Acinetobacter baumannii; A. baumannii isolate 1647) | MIC (Acinetobacter baumannii; A. baumannii isolate 1648) | MIC (Acinetobacter baumannii; A. baumannii isolate 1649) | MIC (Acinetobacter baumannii; A. baumannii isolate 1650) | MIC (Acinetobacter baumannii; A. baumannii isolate 1651) | MIC (Acinetobacter baumannii; A. baumannii isolate 1653) | MIC (Acinetobacter baumannii; A. baumannii isolate 1654) | MIC (Enterobacter cloacae; E. cloacae isolate 1404) | MIC (Enterobacter cloacae; E. cloacae isolate 1405) | MIC (Enterobacter cloacae; E. cloacae isolate 1430) | MIC (Enterobacter cloacae; E. cloacae isolate 1431) | MIC (Enterobacter cloacae; E. cloacae isolate 1445) | MIC (Enterobacter cloacae; E. cloacae isolate 1454) | MIC (Enterobacter cloacae; E. cloacae isolate 1455) | concentration inhibiting 70% of strains (Enterobacter cloacae; [1]) | MIC (Enterococcus faecium; E. faecium isolate 1406) | MIC (Enterococcus faecium; E. faecium isolate 1407) | MIC (Enterococcus faecium; E. faecium isolate 1432) | MIC (Enterococcus faecium; E. faecium isolate 1438) | MIC (Enterococcus faecium; E. faecium isolate 1439) | MIC (Enterococcus faecium; E. faecium isolate 1443) | MIC (Enterococcus faecium; E. faecium isolate 1444) | MIC (Enterococcus faecium; E. faecium isolate 1449) | MIC (Enterococcus faecium; E. faecium isolate 1450) | MIC (Enterococcus faecium; E. faecium isolate 1451) | MIC (Staphylococcus aureus; S. aureus isolate 542) | MIC (Staphylococcus aureus; S. aureus isolate 626) | MIC (Staphylococcus aureus; S. aureus isolate 635) | MIC (Staphylococcus aureus; S. aureus isolate 648) | MIC (Staphylococcus aureus; S. aureus isolate 690) | MIC (Staphylococcus aureus; S. aureus isolate 693) | MIC (Staphylococcus aureus; S. aureus isolate 715) | MIC (Staphylococcus aureus; S. aureus isolate 728) | MIC (Staphylococcus aureus; S. aureus isolate 834) | MIC (Staphylococcus aureus; S. aureus isolate 1043) | MIC (Staphylococcus aureus; S. aureus isolate 1049) | MIC (Klebsiella pneumoniae; K. pneumoniae isolate 1408) | MIC (Klebsiella pneumoniae; K. pneumoniae isolate 1410) | MIC (Klebsiella pneumoniae; K. pneumoniae isolate 1411) | MIC (Klebsiella pneumoniae; K. pneumoniae isolate 1412) | MIC (Klebsiella pneumoniae; K. pneumoniae isolate 1413) | MIC (Klebsiella pneumoniae; K. pneumoniae isolate 1433) | MIC (Klebsiella pneumoniae; K. pneumoniae isolate 1441) | concentration inhibiting 70% of strains (Klebsiella pneumoniae; [2])
25: stacked score activity, 100/MIC, A (Acinetobacter baumannii; A. baumannii)
5 µM: concentration inhibiting 90% of isolates (Pseudomonas aeruginosa; panel of P. aeruginosa clinical isolates) | concentration inhibiting 90% of isolates (Enterobacter cloacae; [1]) | MIC (Klebsiella pneumoniae; K. pneumoniae isolate 1440) | concentration inhibiting 90% of isolates (Klebsiella pneumoniae; [2])
ESKAPE: pathogens against which the compound showed activity at 5 ug/ml (ESKAPE pathogens; dose 5 ug/ml) | pathogens against which the compound showed activity at 10 ug/ml (ESKAPE pathogens; dose 10 ug/ml) | pathogens against which the compound showed activity at 25 ug/ml (ESKAPE pathogens; dose 25 ug/ml)
50: stacked score activity, 100/MIC, E (Enterococcus faecium; E. faecium)
ESAP: pathogens against which the compound showed activity at 4 ug/ml (ESKAPE pathogens; dose 4 ug/ml)
7 µM: MIC (Pseudomonas aeruginosa; P. aeruginosa isolate 1418) | MIC (Enterobacter cloacae; E. cloacae isolate 1446)
8 fold: increase in MIC after serial passage (K. pneumoniae)
20: stacked score activity, 100/MIC, E (Enterobacter cloacae; E. cloacae) | stacked score activity, 100/MIC, K (Klebsiella pneumoniae; K. pneumoniae)
33: stacked score activity, 100/MIC, S (Staphylococcus aureus; S. aureus)
